# Results as given in patent US10098906B2, “Modulation of the physical interaction between platelets and the cell surface effecting cell proliferation” (Cell Receptor GmbH, priority 2013, dated 2018).
# Several values for one entry are separate records, joined by “and”; a condition that tells them apart may be missing. Equal values may be shown once.
# Tests used:
# [1] = tested on: HeLa cells, clone S3; assay: Adhesion experiment (platelet binding to cell surface), microscopic quantification; format: cell-based, human; settings: for Inhibition of platelet binding to growing cells (in words): concentration not stated; for Reduction of platelet binding to the cells: 0.01 U/mL; for Inhibition of the binding of platelets to the HeLa cells: 0.1 U/mL, FIGS. 5 to 9; for Inhibition of platelet binding to growing cells: 0.1 ppm, FIG. 11, triplicate
# Description: The process for evaluating the platelet binding of growing cells involves the isolation of platelets from peripheral blood with two subsequent washes and cell sedimentation. These washes include a partial activation of the platelets, which is relevant for their interaction with Heparin. The incubation with the cells under investigation takes place under conditions in which full activation of platelets is approached, which would lead to lumps forming in the platelets. This would hinder analysis. Therefore, a low concentration of EDTA is added to the assay. The quantification of platelets and the calculation of the surface portions of cells and background is carried out using appropriate software, namely by macros in the open source program ImageJ.
# Virus and mycoplasma free HeLa cells, clone S3, and human skin fibroblasts (NHDF) were purchased from Promo Cell, Heidelberg. Their human origin was confirmed by STR-Analysis. HeLa cells were maintained in Eagles MEM with 10% fetal calf serum. The NHDF were also maintained with 10% fetal calf serum in RPMI 1640. The passaging was performed by trypsin-EDTA treatment. The cell lines were maintained in either 25 ml bottles or in 3 cm plates.
# The cells used for the experiment are cultured for 2 or 3 days in standard plates. At the start of the experiment about ⅓ of the plate surface should be covered with cells. The culture plates are subsequently washed with the buffer mixture described above and filled with further buffer mixture. For example, 30 mm culture dishes are filled with 2 ml 37° C. pre-warmed buffer mixture and 3×10^7 platelets obtained from the above-mentioned suspension.
# The platelet-treated plates are incubated at 37° C. for 60 minutes. In this incubation, the pretreated platelets adhere to proliferating cells. However, cells of G0-phase bind little or none of the pre-treated platelets. This stage of incubation is when the substance to be tested is added to the cell culture buffer, in order to detect whether an effect on platelet binding is observed.
# After the one hour incubation, the plates are washed at room temperature with the above mentioned buffer mixture until no free water floating platelets (generally 2 to 4 washes) are present and immediately fixed with glutaraldehyde (1% v/v in H2O).
# The evaluation is carried out photographically. For this purpose, the image analysis program ImageJ is applied. The number of cell-bound platelets in relation to the recorded cell number of cells is determined. Additionally, the number of cell-bound platelets in relation to the cell-covered area may be determined.
# Images are produced after the fixation in triplicate per plate. Phase contrast or brightfield 25×, 16× or 10× objectives are used. Image analysis is carried out according to SOP IJ. The open source program ImageJ may be used to for differential image subtraction and mask optimization. Subsequently, platelet number, cell number and proportional cell surface are determined by other IJ components.
# [2] = Anticoagulant activity compared with heparin; settings: in vitro studies
# [3] = tested on: platelets; assay: In vitro platelet aggregation compared with UFH; format: cell-based; settings: in vitro studies
# [4] = fraction of heparin activity; cited from earlier work
# [5] = tested on: HeLa cells; assay: Cell culture experiment for testing inhibition of cell proliferation (daily co-incubation with platelets, serum-free); format: cell-based, human; settings: inhibitor 1.0 or 0.1 μg/mL co-incubated with platelets 30 minutes daily, serum-free Eagle's MEM
# Description: In order to interrogate the effectiveness of PPS and DXS with respect to the inhibition of cell growth, the following experiment may be carried out.
# Experiment duration: 5 days; Culture medium: Eagle's MEM without serum addition.
# Test approach: PPS or DXS in 1.0, 0.1 μg/mL, and control (0 μg/mL final concentration).
# HeLa cells are cultured from stocks: 10^4 cells/25 cm^2 flask, cell numbers are counted in a Fuchs-Rosenthal chamber. Platelets are prepared as described above.
# Platelets and HeLa cells, or other tumor cell lines, either with or without inhibitor, are co-incubated for 30 minutes once every day, for 1 to 4 days. After co-incubation the cells are washed as described above and then allowed to rest under standard culture conditions. Typically 90×10^6 platelets are incubated per well per day.
# On day 5, cells are washed with HBSS, photographed, trypsinized and the cell number counted as described above.
substance,measurement,setting,value
heparan sulfate,Inhibition of platelet binding to growing cells (in words),[1],significantly less effective
dalteparin,Reduction of platelet binding to the cells,[1],significant reduction
same,Inhibition of the binding of platelets to the HeLa cells,[1],almost completely inhibited
pentosan polysulfate [PPS],Inhibition of platelet binding to growing cells,[1],roughly 75%
same,Inhibition of platelet binding to growing cells (in words),[1],reproducible inhibition
same,Anticoagulation in comparison to UFH,[2],reduced anticoagulation
same,Platelet aggregation in comparison to UFH,[3],reduced platelet aggregation
same,Anticoagulant activity relative to heparin,[4],less than 1/10 and much weaker and 1/15
same,Increase of cell number (proliferation) on day 5,[5],increases to a reduced extent
dermatan sulfate,Inhibition of platelet binding to growing cells (in words),[1],significantly less effective
danaparoid,Difference in platelet binding between control and treatment,"[1]; 1.25 U/mL, about 5 times the upper limit of the therapeutic range",no significant difference
same,Cell-bound platelets per cell,"[1]; 1.25 U/mL, control 15.9+/-7.7 platelets/cell",13.2 platelets/cell
same,Inhibition of platelet binding to growing cells (in words),[1],significantly lower effect
same,Inhibition of platelet binding to growing cells (in words),[1]; listed as Danaparoid,to a lower extent
Dextran sulfate sodium salt from Leuconostoc spec [DXS],Inhibition of platelet binding to growing cells,[1],roughly 75%
same,Inhibition of platelet binding to growing cells (in words),[1],reproducible inhibition
same,Anticoagulation in comparison to UFH,[2],reduced anticoagulation
same,Platelet aggregation in comparison to UFH,[3],reduced platelet aggregation
same,Anticoagulant activity relative to heparin,[4],much weaker
same,Increase of cell number (proliferation) on day 5,[5],increases to a reduced extent
tinzaparin,Reduction of platelet binding to the cells,[1],significant reduction
same,Inhibition of the binding of platelets to the HeLa cells,[1],almost completely inhibited
enoxaparin,Reduction of platelet binding to the cells,[1],significant reduction
same,Inhibition of the binding of platelets to the HeLa cells,[1],almost completely inhibited
